Results as given in the NIST ThermoML archive (doi:10.1021/je400659p).
Numbers after ± are expanded uncertainties.

Columns and labels:
[1] = refractive index (Na D-line) (dimensionless); conditions: 101.33 kPa, Liquid, Standard Abbe refractometry
[2] = 101 kPa, Liquid, Vibrating tube method
[3] = refractive index (Na D-line) (dimensionless); xn = mol fraction of the nth substance listed; conditions: 101 kPa, Liquid, Standard Abbe refractometry
[4] = xn = mol fraction of the nth substance listed; conditions: 101 kPa, Liquid, Vibrating tube method

In the case of `OCCO` [1,2-ethanediol], the refractive index ([1]; 298.15 K) is reported as 1.43 ± 0.0004, the refractive index ([1]; 303.15 K) is reported as 1.4285 ± 0.0004 and the refractive index ([1]; 313.15 K) is reported as 1.4258 ± 0.0004. It also gave a refractive index ([1]; 323.15 K) of 1.4229 ± 0.0004, a mass density ([2]; 293.15 K) of 1113.45 ± 0.16 kg/m3 and a mass density ([2]; 303.15 K) of 1106.45 ± 0.16 kg/m3. For the same molecule, the mass density ([2]; 313.15 K) was 1099.38 ± 0.16 kg/m3, the mass density ([2]; 323.15 K) was 1092.24 ± 0.15 kg/m3 and the mass density ([2]; 333.15 K) was 1085 ± 0.15 kg/m3. For the same molecule, the mass density ([2]; 343.15 K) was 1077.65 ± 0.15 kg/m3 and the mass density ([2]; 353.15 K) was 1070.17 ± 0.15 kg/m3.

Work on `OCCO` [1,2-ethanediol] + CCn1cc[n+](C)c1.F[B-](F)(F)F yielded a refractive index ([3]; 298.15 K, x2 = 0) of 1.43 ± 0.0004, a refractive index ([3]; 303.15 K, x2 = 0) of 1.4285 ± 0.0004 and a refractive index ([3]; 313.15 K, x2 = 0) of 1.4258 ± 0.0004. The refractive index ([3]; 323.15 K, x2 = 0) was 1.4229 ± 0.0004, the mass density ([4]; 293.15 K, x2 = 0) was 1113.45 ± 0.16 kg/m3 and the mass density ([4]; 303.15 K, x2 = 0) was 1106.45 ± 0.16 kg/m3. It also gave a mass density ([4]; 313.15 K, x2 = 0) of 1099.38 ± 0.16 kg/m3, a mass density ([4]; 323.15 K, x2 = 0) of 1092.24 ± 0.15 kg/m3 and a mass density ([4]; 333.15 K, x2 = 0) of 1085 ± 0.15 kg/m3. It also gave a mass density ([4]; 343.15 K, x2 = 0) of 1077.65 ± 0.15 kg/m3 and a mass density ([4]; 353.15 K, x2 = 0) of 1070.17 ± 0.15 kg/m3.

`C1COCCO1` [1,4-dioxane] showed a refractive index ([1]; 298.15 K) of 1.4205 ± 0.0004, a refractive index ([1]; 303.15 K) of 1.4171 ± 0.0004 and a refractive index ([1]; 313.15 K) of 1.4112 ± 0.0004. For the same molecule, the refractive index ([1]; 323.15 K) was 1.4063 ± 0.0004, the mass density ([2]; 293.15 K) was 1033.57 ± 0.26 kg/m3 and the mass density ([2]; 298.15 K) was 1027.92 ± 0.25 kg/m3. For the same molecule, the mass density ([2]; 303.15 K) was 1022.27 ± 0.25 kg/m3, the mass density ([2]; 313.15 K) was 1010.91 ± 0.24 kg/m3 and the mass density ([2]; 323.15 K) was 999.49 ± 0.23 kg/m3. For the same molecule, the mass density ([2]; 333.15 K) was 987.97 ± 0.23 kg/m3, the mass density ([2]; 343.15 K) was 976.37 ± 0.23 kg/m3 and the mass density ([2]; 353.15 K) was 964.63 ± 0.23 kg/m3.

For `CCCCn1cc[n+](C)c1.F[B-](F)(F)F` [1-butyl-3-methylimidazolium tetrafluoroborate] + OCCO, the refractive index ([3]; 298.15 K, x1 = 0.0895) was 1.4276 ± 0.0004, the refractive index ([3]; 298.15 K, x1 = 0.1758) was 1.4257 ± 0.0004 and the refractive index ([3]; 298.15 K, x1 = 0.3578) was 1.4231 ± 0.0004. The refractive index ([3]; 298.15 K, x1 = 0.4397) was 1.4224 ± 0.0004, the refractive index ([3]; 298.15 K, x1 = 0.6482) was 1.4217 ± 0.0004 and the refractive index ([3]; 298.15 K, x1 = 0.8121) was 1.4216 ± 0.0004. For the same molecule, the refractive index ([3]; 298.15 K, x1 = 1) was 1.4215 ± 0.0004, the refractive index ([3]; 303.15 K, x1 = 0.0895) was 1.4258 ± 0.0004 and the refractive index ([3]; 303.15 K, x1 = 0.1758) was 1.4239 ± 0.0004. For the same molecule, the refractive index ([3]; 303.15 K, x1 = 0.3578) was 1.4216 ± 0.0004, the refractive index ([3]; 303.15 K, x1 = 0.4397) was 1.4211 ± 0.0004 and the refractive index ([3]; 303.15 K, x1 = 0.6482) was 1.4205 ± 0.0004. The refractive index ([3]; 303.15 K, x1 = 0.8121) was 1.4204 ± 0.0004, the refractive index ([3]; 303.15 K, x1 = 1) was 1.4202 ± 0.0004 and the refractive index ([3]; 313.15 K, x1 = 0.0895) was 1.4231 ± 0.0004. It also gave a refractive index ([3]; 313.15 K, x1 = 0.1758) of 1.4212 ± 0.0004, a refractive index ([3]; 313.15 K, x1 = 0.3578) of 1.4188 ± 0.0004 and a refractive index ([3]; 313.15 K, x1 = 0.4397) of 1.4182 ± 0.0004. The refractive index ([3]; 313.15 K, x1 = 0.6482) was 1.4178 ± 0.0004, the refractive index ([3]; 313.15 K, x1 = 0.8121) was 1.4179 ± 0.0004 and the refractive index ([3]; 313.15 K, x1 = 1) was 1.4179 ± 0.0004. For the same molecule, the refractive index ([3]; 323.15 K, x1 = 0.0895) was 1.4203 ± 0.0004, the refractive index ([3]; 323.15 K, x1 = 0.1758) was 1.4184 ± 0.0004 and the refractive index ([3]; 323.15 K, x1 = 0.3578) was 1.4159 ± 0.0004. The refractive index ([3]; 323.15 K, x1 = 0.4397) was 1.4154 ± 0.0004, the refractive index ([3]; 323.15 K, x1 = 0.6482) was 1.415 ± 0.0004 and the refractive index ([3]; 323.15 K, x1 = 0.8121) was 1.4152 ± 0.0004. For the same molecule, the refractive index ([3]; 323.15 K, x1 = 1) was 1.4153 ± 0.0004.

`OCCO` [1,2-ethanediol] + CCCCn1cc[n+](C)c1.F[B-](F)(F)F showed a refractive index ([3]; 298.15 K, x2 = 0) of 1.43 ± 0.0004, a refractive index ([3]; 303.15 K, x2 = 0) of 1.4285 ± 0.0004 and a refractive index ([3]; 313.15 K, x2 = 0) of 1.4258 ± 0.0004. The refractive index ([3]; 323.15 K, x2 = 0) was 1.4229 ± 0.0004.

Work on `C1COCCO1` [1,4-dioxane] + CCn1cc[n+](C)c1.F[B-](F)(F)F yielded a refractive index ([3]; 298.15 K, x2 = 0) of 1.4205 ± 0.0004, a refractive index ([3]; 303.15 K, x2 = 0) of 1.4171 ± 0.0004 and a refractive index ([3]; 313.15 K, x2 = 0) of 1.4112 ± 0.0004. It also gave a refractive index ([3]; 323.15 K, x2 = 0) of 1.4063 ± 0.0004, a mass density ([4]; 293.15 K, x2 = 0) of 1033.57 ± 0.26 kg/m3 and a mass density ([4]; 298.15 K, x2 = 0) of 1027.92 ± 0.25 kg/m3. For the same molecule, the mass density ([4]; 303.15 K, x2 = 0) was 1022.27 ± 0.25 kg/m3, the mass density ([4]; 313.15 K, x2 = 0) was 1010.91 ± 0.24 kg/m3 and the mass density ([4]; 323.15 K, x2 = 0) was 999.49 ± 0.23 kg/m3. The mass density ([4]; 333.15 K, x2 = 0) was 987.97 ± 0.23 kg/m3, the mass density ([4]; 343.15 K, x2 = 0) was 976.37 ± 0.23 kg/m3 and the mass density ([4]; 353.15 K, x2 = 0) was 964.63 ± 0.23 kg/m3.

For `CCn1cc[n+](C)c1.F[B-](F)(F)F` [1-ethyl-3-methylimidazolium tetrafluoroborate], the refractive index ([1]; 298.15 K) was 1.4111 ± 0.0005, the refractive index ([1]; 303.15 K) was 1.41 ± 0.0005 and the refractive index ([1]; 313.15 K) was 1.4073 ± 0.0005. The refractive index ([1]; 323.15 K) was 1.4051 ± 0.0005, the mass density ([2]; 293.15 K) was 1290.63 ± 1.5 kg/m3 and the mass density ([2]; 298.15 K) was 1286.82 ± 1.5 kg/m3. It also gave a mass density ([2]; 303.15 K) of 1283.02 ± 1.5 kg/m3, a mass density ([2]; 313.15 K) of 1275.45 ± 1.4 kg/m3 and a mass density ([2]; 323.15 K) of 1267.97 ± 1.4 kg/m3. For the same molecule, the mass density ([2]; 333.15 K) was 1260.55 ± 1.4 kg/m3, the mass density ([2]; 343.15 K) was 1253.18 ± 1.4 kg/m3 and the mass density ([2]; 353.15 K) was 1245.87 ± 1.4 kg/m3.

In the case of `CCCCn1cc[n+](C)c1.F[B-](F)(F)F` [1-butyl-3-methylimidazolium tetrafluoroborate] + C1COCCO1, the refractive index ([3]; 298.15 K, x1 = 1) is reported as 1.4215 ± 0.0004, the refractive index ([3]; 303.15 K, x1 = 1) is reported as 1.4202 ± 0.0004 and the refractive index ([3]; 313.15 K, x1 = 1) is reported as 1.4179 ± 0.0004. The refractive index ([3]; 323.15 K, x1 = 1) was 1.4153 ± 0.0004, the mass density ([4]; 293.15 K, x1 = 1) was 1204.44 ± 0.4 kg/m3 and the mass density ([4]; 298.15 K, x1 = 1) was 1200.89 ± 0.39 kg/m3. The mass density ([4]; 303.15 K, x1 = 1) was 1197.34 ± 0.39 kg/m3, the mass density ([4]; 313.15 K, x1 = 1) was 1190.27 ± 0.39 kg/m3 and the mass density ([4]; 323.15 K, x1 = 1) was 1183.24 ± 0.38 kg/m3. It also gave a mass density ([4]; 333.15 K, x1 = 1) of 1176.25 ± 0.37 kg/m3, a mass density ([4]; 343.15 K, x1 = 1) of 1169.32 ± 0.37 kg/m3 and a mass density ([4]; 353.15 K, x1 = 1) of 1162.44 ± 0.36 kg/m3.

In the case of `CCCCn1cc[n+](C)c1.F[B-](F)(F)F` [1-butyl-3-methylimidazolium tetrafluoroborate], the refractive index ([1]; 298.15 K) is reported as 1.4215 ± 0.0004, the refractive index ([1]; 303.15 K) is reported as 1.4202 ± 0.0004 and the refractive index ([1]; 313.15 K) is reported as 1.4179 ± 0.0004. For the same molecule, the refractive index ([1]; 323.15 K) was 1.4153 ± 0.0004, the mass density ([2]; 293.15 K) was 1204.44 ± 0.4 kg/m3 and the mass density ([2]; 298.15 K) was 1200.89 ± 0.39 kg/m3. The mass density ([2]; 303.15 K) was 1197.34 ± 0.39 kg/m3, the mass density ([2]; 313.15 K) was 1190.27 ± 0.39 kg/m3 and the mass density ([2]; 323.15 K) was 1183.24 ± 0.38 kg/m3. For the same molecule, the mass density ([2]; 333.15 K) was 1176.25 ± 0.37 kg/m3, the mass density ([2]; 343.15 K) was 1169.32 ± 0.37 kg/m3 and the mass density ([2]; 353.15 K) was 1162.44 ± 0.36 kg/m3.
